From patent US10351501B2, “Gem difluorocompounds as depigmenting or lightening agents” (TFCHEM, priority 2015, dated 2019)
Where two headings read alike, the source gives them in different places.

Experiments:
[1] = biological target: T1, human recombinant tyrosinase (Homo sapiens, UniProt P14679); assay: Inhibition of human tyrosinase in tubo (L-DOPA substrate, OD at 477 nm), IC50; format: biochemical; conditions: for IC50: Tyrosinase Concentration 300 U/mL
T1 sequence (P14679 19-529): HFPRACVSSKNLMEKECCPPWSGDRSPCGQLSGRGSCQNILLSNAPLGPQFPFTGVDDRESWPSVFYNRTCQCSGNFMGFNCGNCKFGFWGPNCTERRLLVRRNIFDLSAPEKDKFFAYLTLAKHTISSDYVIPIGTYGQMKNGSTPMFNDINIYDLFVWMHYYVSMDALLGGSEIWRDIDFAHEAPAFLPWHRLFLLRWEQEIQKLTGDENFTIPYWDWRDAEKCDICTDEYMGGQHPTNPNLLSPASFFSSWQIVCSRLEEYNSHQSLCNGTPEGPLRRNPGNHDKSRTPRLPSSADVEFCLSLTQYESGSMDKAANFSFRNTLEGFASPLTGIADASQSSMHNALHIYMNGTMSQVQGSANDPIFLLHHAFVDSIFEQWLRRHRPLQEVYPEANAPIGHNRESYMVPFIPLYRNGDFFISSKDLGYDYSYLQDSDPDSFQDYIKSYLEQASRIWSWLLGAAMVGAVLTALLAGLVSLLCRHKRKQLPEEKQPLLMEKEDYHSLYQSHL
Method: Substrate solution: L-DOPA (1 mg/mL) Solution B (L-DOPA 20 mg/Purified water up to 20 mL)
Preparation of Test Solutions (for IC50 Test—Examples for Deoxyarbutin)
Inhibitors solutions deoxyarbutin (1 mg/mL): Deoxyarbutin 20 mg in purified water up to 20 mL
This assay used a 96-well plate. Test solutions and controls were made several times.
The results were calculated from the OD measured at time point 20 min.
The determination of half maximal inhibitory concentration (IC50) was performed using the following formula.

[2] = tested on: human tyrosinase; assay: HumanLike Tyrosinase Assay kit (Feldan), L-Tyrosine to dopachrome, OD at 490 nm; format: biochemical; conditions: for OD at 490 nm: 1.12 mM
Method: The efficacy of compound 16 was evaluated by the inhibition of human tyrosinase in tubo and compared to the compound 11.
The assay was performed with a ready-to-use kit from Feldan Inc (Canada): the HumanLike Tyrosinase Assay kit (ref A021-a-001Kit).
The protocol was performed as described in the instructions for use of the manufacturer. Briefly, this kit is intended for the determination of human tyrosinase activity in presence of different inhibitors. The kit measures the conversion of L-Tyrosine into a dopachrome complex absorbing at 490 nm. The time course of the assay is 20 minutes, after which the results are analyzed and compared.
The compounds 11 and 16 have been tested at a final concentration of 1.12 mM.
The measured absorbances at 490 nm are reported in the table 5 and plotted in function of time in the FIG. 1.
Moreover for each compound the efficacy as tyrosinase inhibitor was calculated using the following formula: […]

[3] = Antioxidant activity by the spectrophotometric method of the free radical DPPH•
Source text: The aim of the study was to evaluate the antioxidant activity of compound 11 by the spectrophotometric method of the free radical DPPH• (2,2-diphenyl-1-picrylhydrazyl). Indeed, antioxidants react with DPPH^• (purple), a stable free radical which is reduced to DPPH-H (yellow), and in consequence, the absorbance is decreased from the DPPH^• radical to the DPPH-H form. The degree of discoloration indicates the scavenging potential of the antioxidant compounds in terms of hydrogen donating ability (Popovici et al. Revue de génie industriel 2009, 4, 25-39).
The tested compounds were: Trolox ((±)-6-hydroxy-2,5,7,8-tetramethylchromane-2-carboxylic acid, Sigma Aldrich), as reference, and compound 11.
A stock solution of DPPH• was prepared at 200 μmol/mL in methanol and diluted in methanol in order to have a final concentration of around 150 μmol/mL to obtain a DO close to 0.9 in a plate of 96 wells. The antioxidant stock solutions were prepared at 1 mg/mL in methanol and the tested solutions were prepared from these antioxidant stock solutions as described in Table 7 below.
50 μL of each solution of antioxidant was added to the wells. Then, 200 μL of DPPH^• was added to each well.
The blank was prepared with only 250 μl of methanol and the negative control was prepared with 200 μL DPPH• and 50 μL of methanol.
The analysis was started immediately after the addition of DPPH• lasting for 2 hours (readings every 20 seconds). The absorbance was read at 515 nm. Each experiment was performed three times and had shown that the absorbance decreases while the concentration of antioxidant increased.
The activity of DPPH• is a percentage calculated as the ratio of A/An×100%.
The EC50 is expressed as a molar ratio of antioxidant (compound 11)/DPPH• (Popovici et al. Revue de génie industriel 2009, 4, 25-39). The EC50 was determined from the graph representing the percentage of DPPH• in function of the above mentioned molar ratio (moles of compound 11/moles of DPPH•).
The antioxidant activity of compound 11 was compared to that of Trolox used as a reference (considered as 100%).

Oc1ccc(OC2CCCCC2(F)F)cc1 (racemic) [Compound 11]
IC50 ([1]; mean of 4 tests, read-out: Calculated IC50 Mean (converted)): 35.1 µM
IC50 ([1]; read-out: IC50): 35 µM
IC50 ([1]; time 20 min, read-out: Calculated IC50 Test #1 (converted)): 35.1 µM
IC50 ([1]; time 20 min, read-out: Calculated IC50 Test #2 (converted)): 35.1 µM
IC50 ([1]; time 20 min, read-out: Calculated IC50 Test #3 (converted)): 35.1 µM
IC50 ([1]; time 20 min, read-out: Calculated IC50 Test #4 (converted)): 35.1 µM
inhibits the human recombinant tyrosinase, times more than the Deoxyarbutin ([1]; comparison of IC50): 7-8 times
OD at 490 nm ([2]; time 0 min): 0.0000
OD at 490 nm ([2]; time 1 min): 0.0095
OD at 490 nm ([2]; time 2 min): 0.0190
OD at 490 nm ([2]; time 3 min): 0.0295
OD at 490 nm ([2]; time 4 min): 0.0400
OD at 490 nm ([2]; time 5 min): 0.0505
OD at 490 nm ([2]; time 6 min): 0.0610
OD at 490 nm ([2]; time 7 min): 0.0715
OD at 490 nm ([2]; time 8 min): 0.0825
OD at 490 nm ([2]; time 9 min): 0.0925
OD at 490 nm ([2]; time 10 min): 0.1035
OD at 490 nm ([2]; time 11 min): 0.1135
OD at 490 nm ([2]; time 12 min): 0.1245
OD at 490 nm ([2]; time 13 min): 0.1355
OD at 490 nm ([2]; time 14 min): 0.1465
OD at 490 nm ([2]; time 15 min): 0.1575
OD at 490 nm ([2]; time 16 min): 0.1685
OD at 490 nm ([2]; time 17 min): 0.1790
OD at 490 nm ([2]; time 18 min): 0.1900
OD at 490 nm ([2]; time 19 min): 0.2010
OD at 490 nm ([2]; time 20 min): 0.2120
Inhibitor efficacy (%) ([2]; Compound at 1.12 mM, T = 20 min): 13.5%
A at 515 nm (T = 30 min) ([3]; Solution 1 (0.05 mg/mL in methanol)): 0.505
A at 515 nm (T = 30 min) ([3]; Solution 2 (0.10 mg/mL in methanol)): 0.373
A at 515 nm (T = 30 min) ([3]; Solution 3 (0.15 mg/mL in methanol)): 0.234
A at 515 nm (T = 30 min) ([3]; Solution 4 (0.2 mg/mL in methanol)): 0.233
antioxidant (free radical scavenger) efficacy compared to that of Trolox ([3]; Trolox considered as 100%): 31.1%
EC50 (Ratio antioxidant/DPPH•) Mean ([3]; molar ratio antioxidant/DPPH•, absorbance at T = 30 min): 0.772
